Reference: patent publication US7563862B2, “Neural regeneration peptides and methods for their use in treatment of brain damage” (Neuren Pharmaceuticals Limited, priority 2001, dated 2009)
Ends that are not written are not given here.

Legend:
[1] = system: un-injured cerebellar microexplants; assay: proliferation induction without injury, cerebellar microexplants; format: cell-based, rat
Protocol: FIG. 17 depicts results of proliferation induction without injury using NRP-2 segment KG (SEQ ID NO: 18) and rat NRP-1 (SEQ ID NO: 2). Peptides were administered 24hrs after start of cultivation to decrease interference in the assay due to initial neuronal survival or adherence effects. The cultures were fixed after 3 days in vitro. There was neuronal proliferation seen at 300 μM of NRP-2 segment KG (SEQ ID NO: 18).
Within the applied proliferation assay rat NRP-1 (SEQ ID NO:2) and NRP-2KS (SEQ ID NO:23) were tested for neuronal proliferation inducing activity (see FIG. 19). In order to discriminate proliferation from increased survival and cellular adhesion properties, NRP-2 KS (SEQ ID NO:23) was administered 24 hrs after the start of cultivation. Rat NRP-1(SEQ ID NO:2) had specific effects on neuronal proliferation, (see FIGS. 7, 9 and 10). Neuronal proliferation induced by NRP-2KS (SEQ ID NO:23) occurred within a range of about 0.3-30 nM using un-injured cerebellar microexplants (verified by counting cells displaying neurite outgrowth).

neural stem cells = assay: neural stem cell differentiation assay, neuronal differentiation and axonal outgrowth; format: cell-based, mouse
Protocol: Neural stem cells were derived from E15 C3H mice forebrain and cultured as neurospheres in the presence of 20 ng/ml EGF and 10 ng/ml bFGF as described in Gritti et al. (2001). Briefly, timed pregnant mice were sacrificed and the embryos removed. Under sterile conditions the brains were removed and the forebrains dissected. The tissue was dissociated by trituration and pelleted by 75 g centrifugation for 10 minutes and the cells seeded in non-coated tissue culture flasks in NSA medium with growth factors. For passaging neurospheres were triturated and seeded as single cells.
Upon reaching a sufficient size, neurospheres were dissociated by trituration and plated at a density of 200,000 cells per well on laminin-coated 13 mm diameter coverslips that had been placed in Nunc 24 well plates. The plating medium was a 1:1 mixture of DMEM/F12 supplemented with N2 and Neurobasal supplemented with B27 and 2 mM glutamine. To enhance survival after plating the medium contained 2 ng/ml bFGF. After 24 h the medium was replaced with a neuronal differentiation-promoting medium (1:3 mixture of DMEM/F12 supplemented with N2 and Neurobasal supplemented with B27 and 2 mM glutamine) and except for the controls the test compound or IGF-1 was added simultaneously. The medium with fresh compound was exchanged every other day. Seven days after plating the differentiating cells were incubated for 20 minutes in differentiation medium containing 100 ng/ml Syto21 to label the nuclei of viable cells. Subsequently, they were fixed with 4% paraformaldehyde and immunostained with a mouse anti-βIII tubulin antibody and a goat anti-mouse Cy3-coupled secondary antibody.
After staining the coverslips were removed from the tissue culture plate and mounted on […], using Immunofluore fluorescent mounting medium. To analyse the percentage of neurons of total cells, with a Zeiss axiophot microscope, equipped with Axoivision software, at 20× magnification images of two random fields per well were taken in the red (tubulin stained neurons) and green (Syto21 stained nuclei) fluorescent channel. Neurons and nuclei per field were counted and the neuronal percentage of total cell number determined.

[2] = system: OTCs of rat embryonic forebrain; assay: embryonic forebrain OTC migration assay (medial ganglionic eminence to cortical anlage); format: cell-based
Protocol: OTCs of rat embryonic forebrain were prepared as described. Briefly, pregnant rats at E17 gestation were sacrificed, the fetuses rapidly removed. Coronal slices of the forebrain were cut at 400 μm thickness and placed onto millicell PICM ORG50 membranes (Millipore) in 3 cm Petri dishes containing 1 ml of DMEMI/F12, 6.5 mg/ml glucose, 0.1 mM glutamine and 10% FCS for 34 hrs. Afterwards the medium was exchanged to 1 ml Neurobasal/B27, 6.5 mg/ml glucose, 0.1 mM glutamine, to which 10 μl PBS, NRP, or SDF-1 were added for the indicated concentrations and a small DiI (1,1′-dioctodecycyl-3,3,3′3-tetramethylindocarbocyanine) crystal of uniform size was placed in the medial ganglionic eminence (n=10-15) under a stereomicroscope. After 24 hrs cultivation the total number or migrated neurons dispersed in the ganglionic eminence and cortex were counted under an inverted fluorescent microscope.

wild-type PC-12 cells = assay: haptotactic migration assay, PC-12 cells; format: cell-based; conditions: 1 ng/ml coating followed by matrigel/PDL, 100,000 cells
Protocol: (§1) NRPs were tested for migration-inducing/chemoattractive activity on mouse neural stem cells, EGF-dependent immortalized mouse neural stem cell line MEB5 and wild-type PC-12 cells in a haptotactic migration assay as described below.
(§2) Initial NRP Coating. Control wells of Transwell plates (Coming) with 12 μm pore size were coated in 1.5 ml of the BSA/PBS vehicle. Remaining plates were coated using various concentrations of NRPs ranging between 1-100 ng/ml (prepared in PBS containing 10 ug/ml BSA). The plates were then incubated at 37° C. for 1 hr to coat. Wells were then rinsed 2× with 1 ml sterile PBS.
(§3) Laminin ([…]) for MEB-5 cells, PDL (50 μg/ml)+Matrigel for mouse primary stem cells and fibronectin (25 ug/ml)+matrigel for PC-12 cells were used as extracellular matrix (ECM) coating for the cells. All ECM compounds were diluted in PBS. 1.5 ml of the ECM per well was incubated for 2 hrs at room temperature. The wells were then rinsed once with Iml serum-free media (e.g. NB/B27) followed by 1 ml PBS wash.
(§4) A 5 ug/mL PDL/PLL mixture (in PBS) was used to coat inserts. Subsequently the inserts were rinsed with MilliQ water. […]

MEB-5 cells = assay: haptotactic migration assay, MEB-5 cells; format: cell-based, mouse; conditions: 1 ng/ml coating, 200,000 cells
Protocol: as §1, §2, §3, §4

NRP-1: rat 16 amino acid neural regeneration peptide purified from hippocampal OTC supernatant, Tyr Asp Pro Glu ... Cys His-NH2 (YDPEAASAPGSGNPCH-NH2)
concentration of greatest effect on neuronal proliferation [1]: 3 nM
up regulation of neuronal cell proliferation ([1]; 3 nM): 81.2%

SEPEARRAPGRKGGVVCASLAADW-NH2 [NRP-7 segment SW, 24-mer form of mouse NRP-7]
maximum increase in beta-III-tubulin-positive neurons (neural stem cells; 10 pM, 7 days differentiation): 2 fold
axonal outgrowth-promoting activity (neural stem cells; 7 days differentiation): maximum activity for an increase in axonal length growth lies in the upper nanomolar range
increase in number of migrating neuronal precursor cells [2]: 5 fold
optimum dose [2]: 1 nM
more PC-12 cells migrated compared with BSA vehicle (wild-type PC-12 cells): 333%

KDPEARRAPGSLHPCLAAS-NH2 [NRP-2 segment KS, 19-mer fragment of NRP-2]
more MEB-5 cells migrated compared with BSA-vehicle (MEB-5 cells): 109%
maximum increase in beta-III-tubulin-positive neurons (neural stem cells; 1 0nM, 7 days differentiation): 2 fold
proliferation rate during differentiation of NSC (neural stem cells; together with BrdU for 24 hrs): an increase in the proliferation rate
increased neuronal cell proliferation, greater than vehicle-treated controls ([1]; 300 μM): 117.5%
concentration range of induced neuronal proliferation ([1]; peptide 24 hrs after start of cultivation): 0.3 to 30 nM
